Among the data in patent US10336702B2, “Pharmaceutically active compounds” (BERGENBIO ASA, priority 2015, dated 2019) are IC50 values, retold here.

The structures appear in SMILES notation. Where only a bound is given, the exact number is not on record here.

Common to all, as to assay type: biochemical
One assay concerns the target T1, Akt1 (Homo sapiens, UniProt P31749).
T1 construct: unspecified tag, removed (detagged) (cleaved yes); purchased SignalChem and Proteros (Akt1); Merck Millipore (PDK1) 14-452 (PDK1); none given for Akt1
In words: Akt activation assay (PDK1-mediated activation, LANCE Ultra crosstide TR-FRET), Akt1. Conditions: read-out: Biological Assay 1 IC50 (nM) Akt1. The protocol: (§1) Biological Assay 1: Akt Activation Assay
(§2) Addition of a Europium-labelled antibody specific to the phosphopeptide allows energy transfer from the Europium donor to the Ultra Ulight™ acceptor if close enough in proximity.
(§3) Full length active His6-tagged PDK1 was obtained from Merck Millipore (14-452).
(§4) 1× assay buffer (AB): 50 mM HEPES pH 7.5, 1 mM EGTA, 10 mM MgCl2, 0.01% Tween. Immediately before use, DTT to a concentration of 2 mM was added.
(§5) To prepare lipid vesicles: 1 mg/ml PtdIns(3,4,5)P3 solution (in 10 mM HEPES 7.5) was added to 16.7 mg/ml DOPS/DOPC mixture (in 10 mM HEPES pH 7.5) in a ratio of 1:8.3. MilliQ water was added to the solution to generate concentrations of 400 μM DOPS, 400 μM DOPC and 40 μM PtdIns(3,4,5)P3. The mixture was subjected to 5× freeze/thaw cycles and aliquots stored at −20° C.
(§6) 5 μL enzyme in 1×AB was incubated with 2.5 μL test compound. To start the reaction 2.5 μL reaction mix was added which consisted of PDK1, lipid preparations, crosstide and ATP in 1×AB. Final assay concentrations were as follows: 1% DMSO, 5 nM SignalChem Akt1/15 nM SignalChem Akt2/3 nM Signalchem Akt3/5 nM Proteros Akt1/5 nM proteros Akt2/5 nM Proteros Akt3, 5 nM PDK1, 5.5 μM DOPS, 5.5 μM DOPC, 0.55 μM PtdIns(3,4,5)P3, 100 μM ATP, 100 nM LANCE® Ultra Ulight™-Crosstide. After 30 min, the reaction was stopped using 5 μL 40 μM EDTA in 1× Detection buffer for 5 min. For detection, 5 μL 8 nM LANCE® Ultra Europium-anti-phospho-Crosstide antibody in 1× Detection buffer was added to each well and incubated for 1 h. Plates read with the EnVision® Multilabel Plate Reader, excitation at 320 nm and emission at 665 nm and 615 nm. Compound IC50 was determined using a 4-parameter equation.

The next assay deals with T2, Akt2 (Homo sapiens, UniProt P31751).
T2 construct: unspecified tag, removed (detagged) (cleaved yes); purchased SignalChem and Proteros (Akt2); Merck Millipore (PDK1) 14-452 (PDK1); none given for Akt2
In words: Akt activation assay (PDK1-mediated activation, LANCE Ultra crosstide TR-FRET), Akt2. Conditions: read-out: Biological Assay 1 IC50 (nM) Akt2. On the procedure: as §1, §2, §3, §4, §5, §6

A further assay has as its target T3, Akt3 (Homo sapiens, UniProt Q9Y243).
T3 construct: unspecified tag, removed (detagged) (cleaved yes); purchased SignalChem and Proteros (Akt3); Merck Millipore (PDK1) 14-452 (PDK1); none given for Akt3
In words: Akt activation assay (PDK1-mediated activation, LANCE Ultra crosstide TR-FRET), Akt3. As to conditions: read-out: Biological Assay 1 IC50 (nM) Akt3. On the procedure:
as §1, §2, §3, §4, §5, §6

T1 sequence (P31749 whole entry): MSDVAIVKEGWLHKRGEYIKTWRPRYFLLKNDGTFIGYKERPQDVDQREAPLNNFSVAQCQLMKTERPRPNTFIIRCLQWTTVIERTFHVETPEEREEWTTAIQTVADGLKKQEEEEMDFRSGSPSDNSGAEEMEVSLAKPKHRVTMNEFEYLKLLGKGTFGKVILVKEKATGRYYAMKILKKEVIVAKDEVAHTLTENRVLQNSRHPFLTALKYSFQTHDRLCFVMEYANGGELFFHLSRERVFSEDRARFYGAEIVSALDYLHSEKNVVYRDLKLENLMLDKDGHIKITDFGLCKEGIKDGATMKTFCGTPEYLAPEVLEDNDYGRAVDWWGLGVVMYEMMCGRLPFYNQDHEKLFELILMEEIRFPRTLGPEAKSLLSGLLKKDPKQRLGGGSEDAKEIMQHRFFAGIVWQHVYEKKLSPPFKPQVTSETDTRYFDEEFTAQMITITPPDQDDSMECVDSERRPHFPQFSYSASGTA
T2 sequence (P31751 whole entry): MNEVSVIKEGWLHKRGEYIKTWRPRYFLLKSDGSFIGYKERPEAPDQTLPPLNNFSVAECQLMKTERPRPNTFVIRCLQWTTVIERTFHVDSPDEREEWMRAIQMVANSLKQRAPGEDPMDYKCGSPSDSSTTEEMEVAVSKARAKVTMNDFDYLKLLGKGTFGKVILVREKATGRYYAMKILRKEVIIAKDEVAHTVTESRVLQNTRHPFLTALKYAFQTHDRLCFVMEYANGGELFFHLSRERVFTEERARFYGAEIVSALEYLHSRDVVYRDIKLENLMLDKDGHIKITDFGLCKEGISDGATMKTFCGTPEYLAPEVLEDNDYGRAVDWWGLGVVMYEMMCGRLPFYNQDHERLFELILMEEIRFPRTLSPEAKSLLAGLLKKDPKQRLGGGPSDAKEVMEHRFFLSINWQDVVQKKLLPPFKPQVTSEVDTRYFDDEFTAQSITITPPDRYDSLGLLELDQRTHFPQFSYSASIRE
T3 sequence (Q9Y243 whole entry): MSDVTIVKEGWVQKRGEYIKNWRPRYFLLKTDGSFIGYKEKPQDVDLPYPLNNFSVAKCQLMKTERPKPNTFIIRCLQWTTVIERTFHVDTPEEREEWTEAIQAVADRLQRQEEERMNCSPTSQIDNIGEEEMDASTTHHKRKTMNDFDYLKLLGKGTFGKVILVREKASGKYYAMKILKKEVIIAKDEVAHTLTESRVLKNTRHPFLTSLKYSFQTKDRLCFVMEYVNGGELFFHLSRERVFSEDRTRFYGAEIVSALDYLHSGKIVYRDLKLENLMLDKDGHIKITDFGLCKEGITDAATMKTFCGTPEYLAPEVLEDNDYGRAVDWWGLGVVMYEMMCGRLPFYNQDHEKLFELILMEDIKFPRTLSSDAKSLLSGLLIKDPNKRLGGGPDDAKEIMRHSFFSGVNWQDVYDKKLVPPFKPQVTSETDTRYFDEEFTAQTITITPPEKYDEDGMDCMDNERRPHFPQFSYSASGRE

As for `C[C@H](N)c1ccc(-c2ncc(NC(=O)C[C@H]3CC[C@H](NC(=O)C(C)(C)C(F)(F)F)CC3)cc2-c2ccccc2)cc1` [Example A10, N-(trans-4-(2-((6-(4-((S)-1-aminoethyl)phenyl)-5-phenylpyridin-3-yl)amino)-2-oxoethyl)cyclohexyl)-3,3,3-trifluoro-2,2-dimethylpropanamide], the IC50 at Akt1 is greater than 30000 nM; at Akt2, 18000 nM; on Akt3, 4600 nM.
The corresponding values for `C[C@H](N)c1ccc(-c2ncc(NC(=O)C[C@H]3CC[C@H](N(C)S(C)(=O)=O)CC3)cc2-c2ccccc2)cc1` [Example A13, N-(6-(4-((S)-1-aminoethyl)phenyl)-5-phenylpyridin-3-yl)-2-(trans-4-(N-methylmethylsulfonamido)cyclo-hexyl)acetamide] are greater than 30000 nM, 8100 nM and 830 nM.
As to `CN([C@H]1CC[C@H](CC(=O)Nc2cnc(-c3ccc(C4(N)CCC4)cc3)c(-c3ccccc3F)c2)CC1)S(C)(=O)=O` [Example A16, N-(6-(4-(1-aminocyclobutyl)phenyl)-5-(2-fluorophenyl)pyridin-3-yl)-2-(trans-4-(N-methylmethylsulfonamido)cyclo-hexyl)acetamide], the IC50 was 9800 nM on Akt1, 260 nM at Akt2 and 210 nM at Akt3.
As for `CC1(C(=O)N[C@H]2CC[C@H](CC(=O)Nc3cnc(-c4ccc(C(C)(C)N)cc4)c(-c4ccccc4)c3)CC2)CC1` [Example A21, N-(trans-4-(2-((6-(4-(2-aminopropan-2-yl)phenyl)-5-phenylpyridin-3-yl)amino)-2-oxoethyl)cyclohexyl)-1-methylcyclopropane-1-carboxamide], the values for the IC50 on Akt1, at Akt2 and on Akt3 were greater than 37000 nM, 4100 nM and 55 nM, respectively.
For `CC(C)C(=O)N[C@H]1CC[C@H](CC(=O)Nc2cnc(-c3ccc(C(C)(C)N)cc3)c(-c3ccccc3)c2)CC1` [Example A22, N-(trans-4-(2-((6-(4-(2-aminopropan-2-yl)phenyl)-5-phenylpyridin-3-yl)amino)-2-oxoethyl)cyclohexyl)isobutyramide], the IC50 at Akt1 was greater than 30000 nM; on Akt2, 3500 nM; at Akt3 it was 68 nM.
In the case of `CC(=O)N[C@H]1CC[C@H](CC(=O)Nc2cnc(-c3ccc(C(C)(C)N)cc3)c(-c3ccsc3)c2)CC1` [Example A23, 2-(trans-4-acetamidocyclohexyl)-N-(6-(4-(2-aminopropan-2-yl)phenyl)-5-(thiophen-3-yl)pyridin-3-yl)acetamide], the IC50 on Akt1 was greater than 30000 nM; at Akt2, 22000 nM; at Akt3 it was 1900 nM.
In the case of `CN(C(=O)CC(C)(C)C)[C@H]1CC[C@H](CC(=O)Nc2cnc(-c3ccc(C(C)(C)N)cc3)c(-c3ccccc3)c2)CC1` [Example A30, N-(trans-4-(2-((6-(4-(2-aminopropan-2-yl)phenyl)-5-phenylpyridin-3-yl)amino)-2-oxoethyl)cyclohexyl)-N,3,3-trimethylbutanamide], the values for the IC50 on Akt1, at Akt2 and at Akt3 were greater than 30000 nM, 16000 nM and 290 nM, respectively.
Taken in the same sequence, the figures for `CN(C(=O)C1(C)CC1)[C@H]1CC[C@H](CC(=O)Nc2cnc(-c3ccc(C(C)(C)N)cc3)c(-c3ccccc3)c2)CC1` [Example A31, N-(trans-4-(2-((6-(4-(2-aminopropan-2-yl)phenyl)-5-phenylpyridin-3-yl)amino)-2-oxoethyl)cyclohexyl)-N,1-dimethylcyclopropane-1-carboxamide] were greater than 30000 nM, 11000 nM and 1400 nM.
Taken in the same sequence, the figures for `CN(C(=O)CC1CC1)[C@H]1CC[C@H](CC(=O)Nc2cnc(-c3ccc(C(C)(C)N)cc3)c(-c3ccccc3)c2)CC1` [Example A32, N-(trans-4-(2-((6-(4-(2-aminopropan-2-yl)phenyl)-5-phenylpyridin-3-yl)amino)-2-oxoethyl)cyclohexyl)-2-cyclopropyl-N-methylacetamide] were greater than 30000 nM, 9700 nM and 630 nM.
As for `NC1(c2ccc(-c3ncc(NC(=O)C[C@H]4CC[C@H](NC(=O)C(F)F)CC4)cc3-c3ccccc3)cc2)CCC1` [Example A35, N-(trans-4-(2-((6-(4-(1-aminocyclobutyl)phenyl)-5-phenylpyridin-3-yl)amino)-2-oxoethyl)cyclohexyl)-2,2-difluoroacetamide], the IC50 at Akt1 is 9400 nM; on Akt2, 370 nM; at Akt3, 20 nM.
As to `CC(C)(N)c1ccc(-c2ncc(NC(=O)C[C@H]3CC[C@H](NC(=O)C4CCC4)CC3)cc2-c2ccccc2)cc1` [Example A36, N-(trans-4-(2-((6-(4-(2-aminopropan-2-yl)phenyl)-5-phenylpyridin-3-yl)amino)-2-oxoethyl)cyclohexyl)cyclobutanecarboxamide], the IC50 on Akt1 was greater than 30000 nM; on Akt2, 6800 nM; at Akt3, 160 nM.
Consider `NC1(c2ccc(-c3ncc(NC(=O)C[C@H]4CC[C@H](NC(=O)C5CC5)CC4)cc3-c3ccccc3)cc2)CCC1` [Example A39, N-(trans-4-(2-((6-(4-(1-aminocyclobutyl)phenyl)-5-phenylpyridin-3-yl)amino)-2-oxoethyl)cyclohexyl)cyclopropane-carboxamide], for which the figures for the IC50 on Akt1, at Akt2 and on Akt3 were 3100 nM, 140 nM and 15 nM, respectively.
For `CC(C)(C)C(=O)N[C@H]1CC[C@H](CC(=O)Nc2cnc(-c3ccc(C4(N)CCC4)cc3)c(-c3ccsc3)c2)CC1` [Example A40, N-(trans-4-(2-((6-(4-(1-aminocyclobutyl)phenyl)-5-(thiophen-3-yl)pyridin-3-yl)amino)-2-oxoethyl)cyclohexyl)pivalamide], the results for the IC50 on Akt1, at Akt2 and on Akt3 were greater than 27000 nM, 810 nM and 25 nM, respectively.
In the case of `NC1(c2ccc(-c3ncc(NC(=O)C[C@H]4CC[C@H](NC(=O)C(F)F)CC4)cc3-c3ccccc3)cc2)CC1` [Example A42, N-(trans-4-(2-((6-(4-(1-aminocyclopropyl)phenyl)-5-phenylpyridin-3-yl)amino)-2-oxoethyl)cyclohexyl)-2,2-difluoroacetamide], the IC50 came out at 6900 nM at Akt1, 810 nM on Akt2 and 280 nM at Akt3.
Taken in the same sequence, the figures for `CC(C)(C)C(=O)N[C@H]1CC[C@H](CC(=O)Nc2cnc(-c3ccc(C4(N)CC4)cc3)c(-c3ccccc3)c2)CC1` [Example A43, N-(trans-4-(2-((6-(4-(1-aminocyclopropyl)phenyl)-5-phenylpyridin-3-yl)amino)-2-oxoethyl)cyclohexyl)pivalamide] were greater than 22000 nM, 520 nM and 300 nM.
